Experimental data reported in patent US6288091A, “Antiherpes virus compounds and methods for their preparation and use” (Boehringer Ingelheim Ltd., priority 1999, dated 2001).
Read-outs that look alike come from different tables or passages of the source.

How the values were obtained:
HSV-1 strain F or KOS = test: Inhibition of herpes simplex virus (HSV-1) replication in cell culture (BHK-21 cells, glycoprotein C ELISA); format: cell-based
Method in brief: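 BHK-21 clone 13 cells infected with HSV-1 F or KOS at MOI 0.05 PFU/cell for 1 h at 37°, washed, then treated with compound in α-MEM/2% FBS for 24 h. Late glycoprotein C quantified by ELISA (mAb C11, HRP/OPD, 450 nm); EC50 from % inhibition.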

HCMV (strain AD169) [1] = test: Inhibition of HCMV replication, ELISA assay (Hs-68 cells); format: cell-based, Human Cytomegalovirus (HCMV); conditions: read-out: ELISA CMV EC50
Procedure: (§1) C) Inhibition of Human Cytomegalovirus (HCMV) Replication
(§2) The effect of compounds on the replication of HCMV has been measured by using an ELISA-based assay (ELISA) and a plaque reduction assay (PRA).
Hs-68 cells (ATCC # CRL 1635) were seeded in 96 well microtiter plates at 10,000 cells/well in 100 μL of DMEM medium (Gibco Canada Inc.) supplemented with 10% fetal bovine serum (FBS, Gibco Canada Inc.). The plates were incubated for 3 days at 37° to allow the cells to reach 80-90% confluency prior to the assay.
The medium was removed from wells by aspiration. The cells then were infected at a multiplicity of infection (MOI) of 0.01 PFU/cell with 50 μL of HCMV (strain AD169, ATCC VR-538) in DMEM medium supplemented with 5% heat inactivated FBS (assay medium). The virus was allowed to adsorb to cells for 2 h at 37°. Following viral adsorption, the medium was removed from the wells by aspiration. The cells were washed twice with 200 μL of assay medium to remove unabsorbed virus. The cells were then incubated with or without 100 μL of appropriate concentrations of test reagent in assay medium. After 8 days of incubation at 37°, the extent of viral replication was determined by an ELISA assay which detects the late structural protein p28 of HCMV.
Eight days after infection, the medium was aspirated from the wells. Non-specific binding sites were blocked by adding 200 μL of phosphate buffered saline containing 1% (w/v) bovine serum albumin (blocking buffer) to each well and incubating the plates for 30 min at room temperature. After removal of the blocking buffer by aspiration, the cells were fixed with 100 μL of cold ethanol-acetone solution (95:5) per well. The plates were placed at -20° for 30 min. The plates were washed 4 times with phosphate buffered saline containing 0.05% (v/v) polyoxyethylene sorbitan monolaurate (Tween®). Thereafter, 100 μL of mAb UL99 (Advanced Biotechnologies Inc., #13-130-100) recognizing HCMV protein p28 was added to each wells and plates were incubated for 2 h at room temperature. The plates were washed four times with 200 μL of the above-noted phosphate buffered saline/Tween-20® solution. The cells were then incubated with 100 μL of sheep anti-mouse IgGγ horseradish peroxidase conjugated for 2 h at room temperature. The plates were then washed four times with 200 μL of above-noted phosphate buffered saline/Tween-20® solution. Thereafter, 100 μL of ortho phenylenediamine dihydrochloride (OPD, Gibco Canada Inc.) solution was added to each well and the plates were agitated on a microplate shaker for 30 min in the dark. Color development was monitored at 450 nm using a microplate spectrophotometer.
The SAS program was used to calculate the % inhibition of viral replication and to generate EC50 values.
The EC50 values obtained according to this assay method for certain thiazolylphenyl derivatives of this invention are listed in the following tables under the heading ELISA CMV.

HCMV (strain AD169) [2] = test: Inhibition of HCMV replication, plaque reduction assay (PRA, Hs-68 cells); format: cell-based, Human Cytomegalovirus (HCMV); conditions: read-out: PRA CMV EC50
Procedure: as §1, §2
(§3) Hs-68 cells (ATCC # CRL 1635) were seeded in 12-well plates at 83,000 cells/well in 1 mL of DMEM medium (Gibco Canada Inc.) supplemented with 10% fetal bovine serum (FBS, Gibco Canada Inc.). The plates were incubated for 3 days at 37° to allow the cells to reach 80-90% confluency prior to the assay.
(§4) The medium was removed from the cells by aspiration. The cells were then infected with approximately 50 PFU of HCMV (strain AD169, ATCC VR-538) in DMEM medium supplemented with 5% inactivated FBS (assay medium). The virus was allowed to adsorb to cells for 2 h at 37°. Following viral adsorption, the medium was removed from the wells by aspiration. The cells were then incubated with or without 1 mL of appropriate concentrations of test reagent in assay medium. After 4 days of incubation at 37°, the medium was exchanged with fresh medium containing test compound and 4 days later the cells were fixed with 1% aqueous formaldehyde and stained with a 2% crystal violet solution in 20% ethanol in water. Microscopic plaques were counted using a stereomicroscope. Drug effects were calculated as a percent reduction in the number of plaques in the presence of each drug concentration compared to the number observed in the absence of drug. Ganciclovir was used as a positive control in all experiments.
(§5) The EC50 values obtained according to this assay for certain thiazolyl derivatives of this invention are listed in the following tables under the heading PRA CMV.

HSV-1 helicase-primase = target: T1, HSV-1 helicase-primase (Human herpesvirus 1, UniProt P10189+P10236); test: HSV-1 DNA-dependent ATPase assay (inhibition of HSV-1 helicase-primase); format: biochemical
T1 construct: made in house; host or cells: Sf21 insect cells triply infected with recombinant baculoviruses (UL5, UL8, UL52)
Method in brief: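 Holoenzyme (UL5/UL8/UL52) expressed in baculovirus-infected Sf21 cells and purified, used at 3 μg/mL with 4 mM ATP and 25 μM primed M13 ssDNA in HEPES pH 7.5, 5.5 mM MgCl2, 3.3% DMSO. Incubated 20 min at 34°. Released phosphate read by malachite green at 650 nm, and activity taken from net absorbance with versus without inhibitor.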

[3] = Inhibition of HCMV replication, plaque reduction assay (PRA, Hs-68 cells); format: cell-based, Human Cytomegalovirus (HCMV); conditions: human, read-out: Cytotoxic at this concentration (footnote *, PRA CMV)
Procedure: as §1, §2, §3, §4, §5

[4] = Human betaherpesvirus 5, AD169, Hs68, Group 1 Table 6 entries
[5] = Human alphaherpesvirus 1, BHK-21, Group 2 Table 1 entries
[6] = Human betaherpesvirus 5, AD169, Hs68, Group 2 Table 1 entries
[7] = Human alphaherpesvirus 1, BHK-21, Group 1 Table 2 entries
[8] = Human betaherpesvirus 5, AD169, Hs68, Group 1 Table 2 entries
[9] = Human alphaherpesvirus 1, BHK-21, Group 1 Table 1 entries
[10] = Human betaherpesvirus 5, AD169, Hs68, Group 1 Table 1 entries

T1 sequence (P10192 whole entry): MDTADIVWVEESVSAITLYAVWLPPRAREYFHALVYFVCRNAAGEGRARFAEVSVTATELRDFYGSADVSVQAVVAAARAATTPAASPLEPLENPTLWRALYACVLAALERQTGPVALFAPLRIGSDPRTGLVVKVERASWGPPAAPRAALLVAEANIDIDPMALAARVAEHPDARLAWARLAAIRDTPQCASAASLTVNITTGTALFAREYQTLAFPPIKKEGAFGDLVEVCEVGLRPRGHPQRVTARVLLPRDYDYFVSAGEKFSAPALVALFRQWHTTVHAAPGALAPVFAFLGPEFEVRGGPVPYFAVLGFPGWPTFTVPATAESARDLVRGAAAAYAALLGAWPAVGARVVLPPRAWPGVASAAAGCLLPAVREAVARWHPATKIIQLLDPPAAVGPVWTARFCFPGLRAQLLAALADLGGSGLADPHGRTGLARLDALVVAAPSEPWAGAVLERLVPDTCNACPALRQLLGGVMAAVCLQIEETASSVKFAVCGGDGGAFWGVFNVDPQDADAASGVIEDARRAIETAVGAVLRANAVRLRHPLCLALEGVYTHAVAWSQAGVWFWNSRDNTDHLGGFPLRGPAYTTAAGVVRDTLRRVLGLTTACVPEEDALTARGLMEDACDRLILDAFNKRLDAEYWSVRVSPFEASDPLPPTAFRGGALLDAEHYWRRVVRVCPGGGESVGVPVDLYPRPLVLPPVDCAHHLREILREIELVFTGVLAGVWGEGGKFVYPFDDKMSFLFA
T1 sequence (P10236 whole entry): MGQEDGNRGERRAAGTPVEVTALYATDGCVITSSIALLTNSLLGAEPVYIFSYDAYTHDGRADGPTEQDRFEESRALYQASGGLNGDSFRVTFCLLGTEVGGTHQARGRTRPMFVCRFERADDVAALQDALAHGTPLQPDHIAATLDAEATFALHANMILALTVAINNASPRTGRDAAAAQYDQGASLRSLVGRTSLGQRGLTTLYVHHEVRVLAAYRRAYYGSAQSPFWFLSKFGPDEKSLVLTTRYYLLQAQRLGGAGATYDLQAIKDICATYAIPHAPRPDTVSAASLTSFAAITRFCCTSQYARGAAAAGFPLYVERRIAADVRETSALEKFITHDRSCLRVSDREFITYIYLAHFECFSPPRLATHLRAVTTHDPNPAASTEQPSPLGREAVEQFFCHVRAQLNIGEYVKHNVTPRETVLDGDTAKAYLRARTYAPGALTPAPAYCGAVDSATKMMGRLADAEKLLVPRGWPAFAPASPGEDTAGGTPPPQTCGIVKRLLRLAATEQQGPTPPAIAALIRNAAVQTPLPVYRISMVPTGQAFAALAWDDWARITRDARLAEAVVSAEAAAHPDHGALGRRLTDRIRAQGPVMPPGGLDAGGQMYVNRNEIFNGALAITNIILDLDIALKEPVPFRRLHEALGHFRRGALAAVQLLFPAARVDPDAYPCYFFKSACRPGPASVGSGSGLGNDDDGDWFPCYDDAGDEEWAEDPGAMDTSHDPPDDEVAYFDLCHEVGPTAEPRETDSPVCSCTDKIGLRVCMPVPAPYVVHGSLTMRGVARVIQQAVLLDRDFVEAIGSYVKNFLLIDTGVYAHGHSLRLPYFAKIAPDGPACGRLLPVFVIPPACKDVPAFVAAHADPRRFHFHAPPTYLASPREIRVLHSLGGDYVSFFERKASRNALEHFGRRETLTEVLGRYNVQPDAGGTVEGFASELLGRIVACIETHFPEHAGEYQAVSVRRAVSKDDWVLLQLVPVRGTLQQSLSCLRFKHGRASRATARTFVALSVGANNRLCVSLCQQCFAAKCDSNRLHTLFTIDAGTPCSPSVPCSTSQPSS
T1 sequence (P10189 whole entry): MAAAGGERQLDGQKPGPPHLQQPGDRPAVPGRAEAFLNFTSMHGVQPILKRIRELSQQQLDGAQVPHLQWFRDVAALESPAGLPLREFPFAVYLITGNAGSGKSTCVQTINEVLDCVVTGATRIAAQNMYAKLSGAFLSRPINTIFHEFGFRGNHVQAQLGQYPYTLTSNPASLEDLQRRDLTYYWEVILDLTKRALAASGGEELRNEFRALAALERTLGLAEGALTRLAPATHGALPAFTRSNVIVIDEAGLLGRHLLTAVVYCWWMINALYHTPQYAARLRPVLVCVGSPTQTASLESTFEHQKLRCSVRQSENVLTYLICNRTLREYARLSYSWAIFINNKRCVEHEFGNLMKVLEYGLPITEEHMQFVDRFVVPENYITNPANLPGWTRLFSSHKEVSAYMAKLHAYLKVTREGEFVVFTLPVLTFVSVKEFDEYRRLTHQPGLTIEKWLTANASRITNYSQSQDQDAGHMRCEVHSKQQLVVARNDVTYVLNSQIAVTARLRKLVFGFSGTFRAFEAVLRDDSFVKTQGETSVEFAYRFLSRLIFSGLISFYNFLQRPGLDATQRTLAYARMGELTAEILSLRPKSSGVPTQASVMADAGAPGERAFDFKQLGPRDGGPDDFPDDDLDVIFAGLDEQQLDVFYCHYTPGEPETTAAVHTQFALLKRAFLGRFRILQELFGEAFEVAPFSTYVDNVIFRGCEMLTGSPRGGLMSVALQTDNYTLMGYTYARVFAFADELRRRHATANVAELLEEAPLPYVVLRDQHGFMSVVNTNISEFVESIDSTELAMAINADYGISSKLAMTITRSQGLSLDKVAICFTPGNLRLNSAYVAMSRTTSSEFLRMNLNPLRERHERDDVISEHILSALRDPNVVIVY

Structure (SMILES)	EC50 (HCMV (strain AD169) [2]; [6]) [nM]	EC50 (HSV-1 strain F or KOS; [9]) [nM]	EC50 (HCMV (strain AD169) [1]; [10]) [nM]	IC50 (HSV-1 helicase-primase; Group 1 Table 1 entries) [nM]	further results
Nc1nc(-c2ccc(NC(=O)[C@H]3CCC(=O)N3Cc3ccccc3)cc2)cs1 [Example 1]	–	–	–	–	EC50 (HSV-1 strain F or KOS; Human alphaherpesvirus 1, BHK-21, Group 1 Table 6 entries): 3400 nM; EC50 (HCMV (strain AD169) [1]; [4]): 250 nM; EC50 (HCMV (strain AD169) [2]; [4]): 80000 nM
CCCCNC(=O)Nc1ccc(-c2csc(N)n2)cc1 [Example 2]	12000	–	–	–	EC50 (HSV-1 strain F or KOS; [5]): 3500 nM; EC50 (HCMV (strain AD169) [1]; [6]): 600 nM
CN(CCc1ccccn1)C(=O)[C@H](Cc1ccccc1)NC(=O)Nc1ccc(-c2csc(N)n2)cc1 [Example 9]	36000	–	–	–	EC50 (HSV-1 strain F or KOS; [5]): 2900 nM; EC50 (HCMV (strain AD169) [1]; [6]): 4100 nM
Nc1nc(-c2ccc(NC(=O)CCNC3CCc4ccccc43)cc2)cs1 (centres unmarked) [Example 9]	–	–	–	–	EC50 (HSV-1 strain F or KOS; [7]): 950 nM; EC50 (HCMV (strain AD169) [1]; [8]): 6000 nM; EC50 (HCMV (strain AD169) [2]; [8]): > 10400 nM
Nc1nc(-c2ccc(NC(=O)NCCCn3ccnc3)cc2)cs1 [Example 10]	> 48000	–	–	–	IC50 (HSV-1 helicase-primase; Group 2 Table 1 entries): 4700 nM; MCC at 192 h ([3]; Group 2 Table 1 entries): 48 µM
Nc1nc(-c2ccc(NC(=O)CCN(C(=O)c3cccnc3)C3CCc4ccccc43)cc2)cs1 (centres unmarked) [Example 11]	–	–	–	–	EC50 (HSV-1 strain F or KOS; [7]): 4000 nM; EC50 (HCMV (strain AD169) [1]; [8]): 15000 nM; EC50 (HCMV (strain AD169) [2]; [8]): 20000 nM
Nc1nc(-c2ccc(NC(=O)NCCN(Cc3ccccc3)Cc3ccccc3)cc2)cs1 [Example 16]	> 5000	–	–	–	IC50 (HSV-1 helicase-primase; Group 2 Table 1 entries): 1600 nM; MCC at 192 h ([3]; Group 2 Table 1 entries): 5 µM
Nc1nc(-c2ccc(NC(=O)NCc3ccccc3)cc2)cs1 [Example 20]	> 45000	–	–	–	IC50 (HSV-1 helicase-primase; Group 2 Table 1 entries): 900 nM; MCC at 192 h ([3]; Group 2 Table 1 entries): 45 µM
Nc1nc(-c2ccc(NC(=O)NCc3ccc(Cl)cc3)cc2)cs1 [Example 21]	> 1000	–	–	–	IC50 (HSV-1 helicase-primase; Group 2 Table 1 entries): 7200 nM; MCC at 192 h ([3]; Group 2 Table 1 entries): 1 µM
Nc1nc(-c2ccc(NC(=O)NCc3cccc(F)c3)cc2)cs1 [Example 22]	> 8000	–	–	–	IC50 (HSV-1 helicase-primase; Group 2 Table 1 entries): 1300 nM; MCC at 192 h ([3]; Group 2 Table 1 entries): 8 µM
Nc1nc(-c2ccc(NC(=O)NCc3ccccc3F)cc2)cs1 [Example 23]	> 4000	–	–	–	IC50 (HSV-1 helicase-primase; Group 2 Table 1 entries): 2000 nM; MCC at 192 h ([3]; Group 2 Table 1 entries): 4 µM
Nc1nc(-c2ccc(NC(=O)NCCc3ccc(F)cc3)cc2)cs1 [Example 24]	> 5000	–	–	–	IC50 (HSV-1 helicase-primase; Group 2 Table 1 entries): 30000 nM; MCC at 192 h ([3]; Group 2 Table 1 entries): 5 µM
CN(C)c1ccc(CNC(=O)Nc2ccc(-c3csc(N)n3)cc2)cc1 [Example 25]	> 18000	–	–	–	IC50 (HSV-1 helicase-primase; Group 2 Table 1 entries): 2900 nM; MCC at 192 h ([3]; Group 2 Table 1 entries): 18 µM
C[C@H](NC(=O)Nc1ccc(-c2csc(N)n2)cc1)c1ccccc1 [Example 26]	> 74000	–	–	–	IC50 (HSV-1 helicase-primase; Group 2 Table 1 entries): 590 nM; MCC at 192 h ([3]; Group 2 Table 1 entries): 74 µM
COc1ccc(CN(CC(=O)Nc2ccc(-c3csc(N)n3)cc2)C(=O)C2CCCCC2)cc1 [Example 46]	–	94	8000	75	–
Nc1nc(-c2ccc(NC(=O)CN(Cc3ccccn3)C(=O)c3ccncc3)cc2)cs1 [Example 56]	–	550	38000	1200	–

Structure (SMILES)	EC50 (HCMV (strain AD169) [2]; [6]) [nM]	EC50 (HSV-1 strain F or KOS; [9]) [nM]	EC50 (HCMV (strain AD169) [1]; [10]) [nM]	IC50 (HSV-1 helicase-primase; Group 1 Table 1 entries) [nM]	further results
Nc1nc(-c2ccc(NC(=O)CN(Cc3ccncc3)C(=O)c3ccc(F)cc3)cc2)cs1 [Example 73]	–	17	12600	88	–
Nc1nc(-c2ccc(NC(=O)CN(CC3CCCCC3)C(=O)CC3CCCCC3)cc2)cs1 [Example 76]	–	160	25000	80	–
COC(=O)N(CC(=O)Nc1ccc(-c2csc(N)n2)cc1)Cc1ccccc1 [Example 87]	–	1100	18000	2800	–
C[C@H](c1ccccc1)N(CC(=O)Nc1ccc(-c2csc(N)n2)cc1)C(=O)OC(C)(C)C [Example 88]	–	1200	> 47000	2400	–
CC(C)(C)OC(=O)N(CC(=O)Nc1ccc(-c2csc(N)n2)cc1)Cc1ccc(Cl)cc1 [Example 91]	–	25	1600	70	–
CN(C)c1cccc2c(S(=O)(=O)N(CC(=O)Nc3ccc(-c4csc(N)n4)cc3)Cc3ccccc3)cccc12 [Example 98]	–	2100	> 2000	500	–
CC(C)(C)OC(=O)N(CCc1ccccn1)CC(=O)Nc1ccc(-c2csc(N)n2)cc1 [Example 101]	–	740	1900	2200	–
Nc1nc(-c2ccc(NC(=O)CN(CCC3CCCCC3)C(=O)C3CCCCC3)cc2)cs1 [Example 103]	–	240	> 41000	150	–
CN(C)S(=O)(=O)N(CC(=O)Nc1ccc(-c2csc(N)n2)cc1)Cc1ccccc1 [Example 106]	–	160	> 6000	1000	–
Nc1nc(-c2ccc(NC(=O)CN(CC3CCCCC3)S(=O)(=O)N3CCOCC3)cc2)cs1 [Example 107]	–	830	–	–	MCC at 192 h ([3]; Group 1 Table 1 entries): 12 µM
Nc1nc(-c2ccc(NC(=O)CN(Cc3ccccc3)C(=O)OCc3ccccc3)cc2)cs1 [Example 109]	–	200	> 20000	310	–
CC(C)CN(CC(=O)Nc1ccc(-c2csc(N)n2)cc1)C(=O)OCc1ccccc1 [Example 110]	–	1600	> 40000	3200	–
Nc1nc(-c2ccc(NC(=O)CN(Cc3ccccc3)C(=O)Cc3cccnc3)cc2)cs1 [Example 113]	–	–	–	2000	MCC at 192 h ([3]; Group 1 Table 1 entries): 50 µM; EC50 (HCMV (strain AD169) [2]; [10]): > 50000 nM
CCCC(CCC)N(CC(=O)Nc1ccc(-c2csc(N)n2)cc1)C(=O)OCc1ccccc1 [Example 141]	–	3500	> 121000	4000	–
CC(C)(C)CN(CC(=O)Nc1ccc(-c2csc(N)n2)cc1)C(=O)OC(C)(C)C [Example 142]	–	2400	4000	6300	–
Nc1nc(-c2ccc(NC(=O)CN(Cc3ccccc3)S(=O)(=O)NCc3ccccc3)cc2)cs1 [Example 143]	–	1000	> 64000	800	–
